The source of these data is patent publication US12104173B2, “Method for differentiation of human pluripotent stem cell lines in suspension culture” (AGENCY FOR SCIENCE, TECHNOLOGY AND RESEARCH, priority 2018, dated 2024).

Series [1] relates to X13 induced pluripotent stem cells (iPSCs) on microcarriers. Briefly: screening of Wnt pathway activators: mesoderm induction (T-bra, KDR+PDGFRα−) by flow cytometry. It counts as cell-based, human. To be noted: compared to other Wnt pathway modulators. Here is the method: (§1) (A) is a column graph showing two different concentrations of seven Wnt pathway activators (BIO, SB-216763, CHIR98014, Inhibitor VIII, Kenpaullone, DRF053 dihydrochloride and Wnt3a). which were selected from literature reviews and screened with CHIR99021 as a control for the disclosed hematopoietic differentiation protocol. The viability of the X13 induced pluripotent stem cells (iPSCs) on microcarriers were tabulated accordingly 24 hours post treatment of the various Wnt pathway modulators. […] (B) is a column graph showing the percentage of mesogerm induction.
Human induced pluripotent stem cell-microcarrier (hiPSC-MC) aggregates (1×10^6 cells/ml, or 1e6 cells/nil) were transferred to mesoderm induction medium (cytokines all from Stemcell Technologies) plus Stemline II Hematopoietic Stem Cell Expansion medium (SL2) in either 6-well ultra-low attachment plates (5 ml) under continuous agitation at 75 rpm or 125 ml spinner flasks (50 ml) under continuous agitation at 36 rpm. Daily medium changes as indicated: Day 0: SL2+30 ng/ml BMP4+50 ng/ml VEGF-165+40 ng/ml Activin A+12-15 μM CHIR-99021; Day 1: SL2+30 ng/ml BMP4+50 ng/ml VEGF-165+40 ng/ml Activin A; Day 2: SL2+20 ng/ml BMP4+30 ng/ml VEGF165+5 ng/ml Activin A+10 ng/ml bFGF+20 ng/ml SCF+0.4 ng/ml β-estradiol. Samples were collected on day 1 and day 3 for flow cytometry analysis of T-brachyury (T-Bra) and KDR/PDGFRα cells, respectively.
A general note: In flow cytometry, cells or beads pass a laser one at a time.

Series [2] has the same test system. To be noted: 24 hours post treatment; 10 μM. Here is the method:
as §1

Series [3] has as its system O-neg hiPSC line (D5) expanded in agitated microcarrier cultures. The experiment in a line: DoE multifactorial analysis of KDR+ cells, O-neg hiPSC. It is filed as cell-based, human. To be noted: CHIR exposure for 24 hours, 4 days post differentiation. From the text: (B) Plot of KDR levels (%) for respective conditions tested (day 4 post differentiation). Conditions 27, 28 and 29 are triplicates of the same condition tested. […] Act=Activin A; CHI=CHIR-99021 for 24 hr, CH2=CHIR-99021 from 24-48 hr; BMP=BMP4. Computed P-values are indicated below the chart.
These findings were also confirmed using an O-neg hiPSC line (D5) expanded in agitated microcarrier cultures (FIG. 6). […] In summary, from the Design of experiment analysis, it was established that a BMP4 dose of 10 to 50 ng/ml, Activin A dose of 25 to 50 ng/ml and exposure of CHIR for 24 hours at a dose of 6 to 12 μM would be efficient for the generation of KDR+ cells.
Design of experiments (DoE) using a resolution IV Fractional Factorial Design was performed using the MODDE software (Sartorius Stedim Biotech, Germany) to evaluate initial BMP4, Activin A and CHIR-99021, doses and duration of exposure for their effects on the following response factors: induction of KDR+ cells 4 days post mesoderm induction or total hematopoietic precursors generated 2 weeks post differentiation. […]

Series [4] has as its system hES-3-MC aggregates (agitation culture). The experiment in a line: DoE: hematopoietic precursor generation, 14 days in Blast growth medium (BGM). It is filed as cell-based, human. To be noted: BMP4 10 to 50 ng/ml, Activin A 0-80 ng/ml, CHIR exposure 0 to 24 hours, 2 weeks in BGM. Here is the method: (§2) Different doses (and/or duration of exposure) of cytokines and small-molecules with known roles in inducing mesoderm and hematopoietic differentiation were evaluated using the MODDE® software for differentiation of hES-3 MC aggregate cultures initially derived under agitation. The DoE was designed to investigate effects of BMP4 (10-50 ng/ml), Activin A (0 to 80 ng/ml), CHIR (0-15 μM at 0 to 48 hours after start of mesoderm induction). These variables generated 29 culture conditions (FIG. 2A), which were tested for their effects on percent of KDR+ cells (4 days post initiation of differentiation) and the following stage of hematopoietic precursors generation (2 weeks of culture in Blast growth medium (BGM)).
(§3) Design of experiments (DoE) using a resolution IV Fractional Factorial Design was performed using the MODDE software (Sartorius Stedim Biotech, Germany) to evaluate initial BMP4, Activin A and CHIR-99021, doses and duration of exposure for their effects on the following response factors: induction of KDR+ cells 4 days post mesoderm induction or total hematopoietic precursors generated 2 weeks post differentiation. […] Computed model with R2 scores>0.5 indicate a model of significant fit, Q2 scores>0.1 indicate a significant model while Q2>0.5 indicate a good model for estimation of future prediction precision, model validity score of <0.25 indicate statistically significant model problems and reproducibility (the variation of the replicates compared to overall variability) should be greater than 0.5.
Human pluripotent stem cell-microcarrier (HPSC-MC) aggregates (derived from 7 day continuous agitation conditions), equivalent to 5×10^5 cells, were seeded and differentiated in 24-well ultra-low attachment plates with Stemline II medium using multi-factorial conditions as detailed in FIG. 2A and FIG. 6A, as well as in Table 3. […]
Following 4 days of differentiation, single cells were derived from microcarrier aggregates by treatment with TrypLE. […] Fold-expansion was calculated as total number of cells derived after 2 weeks as compared to initial seeding of 1×10^5 cells.

Series [5] has the same test system. The experiment in a line: DoE multifactorial mesoderm induction: % KDR+ cells by flow cytometry. It is filed as cell-based, human. To be noted: BMP4 10 to 50 ng/ml, Activin A 0-80 ng/ml, CHIR exposure 0 to 24 hours, 4 days post initiation of differentiation. Here is the method:
as §2
Design of experiments (DoE) using a resolution IV Fractional Factorial Design was performed using the MODDE software (Sartorius Stedim Biotech, Germany) to evaluate initial BMP4, Activin A and CHIR-99021, doses and duration of exposure for their effects on the following response factors: induction of KDR+ cells 4 days post mesoderm induction or total hematopoietic precursor cells generated 2 weeks post differentiation.
as §3, with “0.5. […]” for “0.5.”

Turning to `Nc1nc(NCCNc2ncc(-n3ccnc3)c(-c3ccc(Cl)cc3Cl)n2)ccc1[N+](=O)[O-]` [CHIR98014], in series [1] (1 μM), the T-bra expression result is given as “higher T-bra expression”. The “viability of X13 iPSCs on microcarriers” value in series [2] is reported as “significantly reduced viability”.
Regarding `Cn1cc(C2=C(c3ccc(Cl)cc3Cl)C(=O)NC2=O)c2ccccc21` [SB-216763], the T-bra expression entry in series [1] (5 μM) is on record as “higher T-bra expression”.

B1: Activin A: dimeric protein complex comprising two beta-A subunits (protein, UniProt P08476 311-426, looked up)
Inhibin beta A chain: GLECDGKVNICCKKQFFVSFKDIGWNDWIIAPSGYHANYCEGECPSHIAGTSGSSLSFHSTVINHYRMRGHSPFANLKSCCVPTKLRPMSMLYYDDGQNIIKKDIQNMIVEECGCS
modifications: Inhibin beta A chain homodimer
notes: dimeric protein complex comprising two beta-A subunits
B1: the “effect of factor on KDR+ cells (DoE)” value in series [3] was “significant factors for increased KDR+ cells”. For the same molecule, the “effect of factor on hematopoietic precursor generation (DoE)” value in series [4] is on record as “did not significantly alter”. The “effect of factor on percent of KDR+ cells (DoE)” value in series [5] is reported as “did not significantly alter”.
